In ChEMBL document CHEMBL1201862, “PubChem BioAssay data set” (2004):
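96-well plates; 48 h exposure; 5 concentrations. Endpoints by linear interpolation between flanking doses. Not reached: highest tested concentration assigned. Abbreviation: GI50, concentration required for 50% inhibition of growth.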 Calls of active or inactive are those of the source. No stated cut-off is given here; in the data, active = GI50 up to about 1.1 µM and inactive = higher.

Legend:
Experiment in all cases: growth of human tumour cells (NCI), 48 h
DMS-273 = tested on: DMS-273
SF-539 = tested on: SF-539
HCC 2998 = tested on: HCC 2998
CAKI-1 = tested on: CAKI-1
SNB-78 = tested on: SNB-78
ACHN = tested on: ACHN
IGROV-1 = tested on: IGROV-1
DLD-1 = tested on: DLD-1
NCI-H23 = tested on: NCI-H23
UO-31 = tested on: UO-31
HCT-116 = tested on: HCT-116
HT-29 = tested on: HT-29
NCI-H460 = tested on: NCI-H460
SW-620 = tested on: SW-620
CCRF-CEM = tested on: CCRF-CEM
SNB-75 = tested on: SNB-75
LOX IMVI = tested on: LOX IMVI
HOP-92 = tested on: HOP-92
HOP-62 = tested on: HOP-62
NCI-H226 = tested on: NCI-H226
RXF 631 = tested on: RXF 631
COLO 205 = tested on: COLO 205
RPMI-8226 = tested on: RPMI-8226
SF-268 = tested on: SF-268
A549 = tested on: A549
NCI-H522 = tested on: NCI-H522
OVCAR-5 = tested on: OVCAR-5
SF-295 = tested on: SF-295
HCT-15 = tested on: HCT-15
SN12C = tested on: SN12C
OVCAR-4 = tested on: OVCAR-4
TK-10 = tested on: TK-10
SK-MEL-5 = tested on: SK-MEL-5
UACC-62 = tested on: UACC-62
U-251 = tested on: U-251
KM12 = tested on: KM12
K562 = tested on: K562
MOLT-4 = tested on: MOLT-4
EKVX = tested on: EKVX
Malme-3M = tested on: Malme-3M
UACC-257 = tested on: UACC-257
SK-OV-3 = tested on: SK-OV-3
A498 = tested on: A498
SNB-19 = tested on: SNB-19
HL-60 = tested on: HL-60
M14 = tested on: M14
SK-MEL-28 = tested on: SK-MEL-28
KM-20L2 = tested on: KM-20L2
DMS-114 = tested on: DMS-114
XF498 = tested on: XF498
OVCAR-8 = tested on: OVCAR-8
HOP-18 = tested on: HOP-18
M19-MEL = tested on: M19-MEL
786-0 = tested on: 786-0
SK-MEL-2 = tested on: SK-MEL-2
RXF 393 = tested on: RXF 393
OVCAR-3 = tested on: OVCAR-3

Measured: GI50

O=c1c2ccccc2c(=O)c2c1c1[nH]c3ccccc3c1c1c(=O)c3ccccc3c(=O)c21
inactive: DMS-273 > 100 µM | SF-539 > 100 µM | HCC 2998 > 100 µM | CAKI-1 > 100 µM | SNB-78 > 100 µM | ACHN > 100 µM | IGROV-1 > 100 µM | DLD-1 > 100 µM | NCI-H23 > 100 µM | UO-31 > 100 µM | HCT-116 > 100 µM | HT-29 > 100 µM | NCI-H460 > 100 µM | SW-620 > 100 µM | CCRF-CEM 94 µM | SNB-75 > 100 µM | LOX IMVI > 100 µM | HOP-92 > 100 µM | HOP-62 > 100 µM | NCI-H226 > 100 µM | RXF 631 > 100 µM | COLO 205 > 100 µM | RPMI-8226 > 100 µM | SF-268 > 100 µM | A549 > 100 µM | NCI-H522 > 100 µM | OVCAR-5 > 100 µM | SF-295 > 100 µM | SN12C > 100 µM | OVCAR-4 > 100 µM | TK-10 > 100 µM | SK-MEL-5 > 100 µM | UACC-62 > 100 µM | U-251 > 100 µM | KM12 > 100 µM | K562 > 100 µM | MOLT-4 > 100 µM | EKVX > 100 µM | Malme-3M > 100 µM | UACC-257 > 100 µM | SK-OV-3 > 100 µM | A498 > 100 µM | SNB-19 > 100 µM | HL-60 > 100 µM | M14 > 100 µM | SK-MEL-28 > 100 µM | KM-20L2 > 100 µM | DMS-114 > 100 µM | XF498 > 100 µM | OVCAR-8 > 100 µM | HOP-18 > 100 µM | M19-MEL > 100 µM | 786-0 > 100 µM | SK-MEL-2 > 100 µM | RXF 393 > 100 µM | OVCAR-3 > 100 µM
> 100 µM: HCT-15
